Measured values published in the NIST ThermoML archive (doi:10.1016/j.jct.2010.10.016).

Assay: xn = mol fraction of the nth substance listed
Conditions: 101 kPa, Liquid; for viscosity: Capillary tube (Ostwald / Ubbelohde) method; for mass density: Pycnometric method; for speed of sound: Resonance method

CCCCOCCO [2-butoxyethan-1-ol] + C[N+](=O)[O-]
Conditions	mass density [kg/m3]	speed of sound [m/s]	viscosity [mPa·s]
293.15 K, x2 = 0	901.19	1323.9	3.239
293.15 K, x2 = 0.05	905.83	–	–
293.15 K, x2 = 0.0507	–	1322.4	–
293.15 K, x2 = 0.0557	–	–	3.019
293.15 K, x2 = 0.0999	910.77	–	–
293.15 K, x2 = 0.1001	–	1321.8	–
293.15 K, x2 = 0.106	–	–	2.815
293.15 K, x2 = 0.1974	–	–	2.451
293.15 K, x2 = 0.2	921.75	–	–
293.15 K, x2 = 0.2003	–	1318.8	–
293.15 K, x2 = 0.3	934.29	–	–
293.15 K, x2 = 0.3003	–	1316.1	–
293.15 K, x2 = 0.3083	–	–	2.031
293.15 K, x2 = 0.4	948.84	–	–
293.15 K, x2 = 0.4005	–	1313.7	–
293.15 K, x2 = 0.4014	–	–	1.716
293.15 K, x2 = 0.4487	–	–	1.571
293.15 K, x2 = 0.4997	–	–	1.432
293.15 K, x2 = 0.5	966.21	–	–
293.15 K, x2 = 0.5002	–	1312	–
293.15 K, x2 = 0.5492	–	–	1.307
293.15 K, x2 = 0.5947	–	–	1.203
293.15 K, x2 = 0.6	987.24	1311.8	–
293.15 K, x2 = 0.699	–	–	0.996
293.15 K, x2 = 0.7	1013.09	1313.7	–
293.15 K, x2 = 0.7999	–	1318.2	–
293.15 K, x2 = 0.8002	1045.18	–	–
293.15 K, x2 = 0.8012	–	–	0.838
293.15 K, x2 = 0.8981	–	–	0.72
293.15 K, x2 = 0.8999	1085.39	1326.4	–
293.15 K, x2 = 0.9475	–	–	0.679
293.15 K, x2 = 0.95	–	1332.4	–
293.15 K, x2 = 0.9503	1109.89	–	–
298.15 K, x2 = 0	896.29	1306.8	–
298.15 K, x2 = 0.05	900.85	–	–
298.15 K, x2 = 0.0507	–	1305.6	–
298.15 K, x2 = 0.0999	905.68	–	–
298.15 K, x2 = 0.1001	–	1304.5	–
298.15 K, x2 = 0.2	916.48	–	–
298.15 K, x2 = 0.2003	–	1302.2	–
298.15 K, x2 = 0.3	928.9	–	–
298.15 K, x2 = 0.3003	–	1299.6	–
298.15 K, x2 = 0.4	943.34	–	–
298.15 K, x2 = 0.4005	–	1297.2	–
298.15 K, x2 = 0.5	960.53	–	–
298.15 K, x2 = 0.5002	–	1295.5	–
298.15 K, x2 = 0.6	981.35	1295.2	–
298.15 K, x2 = 0.7	1006.9	1296.8	–
298.15 K, x2 = 0.7999	–	1300.9	–
298.15 K, x2 = 0.8002	1038.68	–	–
298.15 K, x2 = 0.8999	1078.61	1308.5	–
298.15 K, x2 = 0.95	–	1313.8	–
298.15 K, x2 = 0.9503	1103.01	–	–
298.45 K, x2 = 0	–	–	2.825
298.45 K, x2 = 0.0506	–	–	2.654
298.45 K, x2 = 0.1012	–	–	2.483
298.45 K, x2 = 0.2015	–	–	2.165
298.45 K, x2 = 0.2997	–	–	1.873
298.45 K, x2 = 0.4047	–	–	1.581
298.45 K, x2 = 0.4498	–	–	1.464
298.45 K, x2 = 0.5008	–	–	1.339
298.45 K, x2 = 0.5481	–	–	1.234
298.45 K, x2 = 0.5976	–	–	1.131
298.45 K, x2 = 0.6984	–	–	0.943
298.45 K, x2 = 0.7981	–	–	0.8
298.45 K, x2 = 0.8986	–	–	0.689
298.45 K, x2 = 0.9394	–	–	0.655
303.15 K, x2 = 0	892.35	1290.6	2.449
303.15 K, x2 = 0.05	896.7	–	–
303.15 K, x2 = 0.0507	–	1289.5	–
303.15 K, x2 = 0.0522	–	–	2.307
303.15 K, x2 = 0.0999	901.4	–	–
303.15 K, x2 = 0.1001	–	1288.6	–
303.15 K, x2 = 0.1004	–	–	2.171
303.15 K, x2 = 0.2	911.94	–	–
303.15 K, x2 = 0.2003	–	1286.3	–
303.15 K, x2 = 0.2155	–	–	1.85
303.15 K, x2 = 0.299	–	–	1.635
303.15 K, x2 = 0.3	924.13	–	–
303.15 K, x2 = 0.3003	–	1283.6	–
303.15 K, x2 = 0.3996	–	–	1.399
303.15 K, x2 = 0.4	938.41	–	–
303.15 K, x2 = 0.4005	–	1281.1	–
303.15 K, x2 = 0.4495	–	–	1.292
303.15 K, x2 = 0.5	955.38	–	–
303.15 K, x2 = 0.5002	–	1279.2	1.191
303.15 K, x2 = 0.5482	–	–	1.102
303.15 K, x2 = 0.5993	–	–	1.01
303.15 K, x2 = 0.6	975.84	1278.5	–
303.15 K, x2 = 0.6998	–	–	0.858
303.15 K, x2 = 0.7	1000.85	1279.5	–
303.15 K, x2 = 0.7994	–	–	0.738
303.15 K, x2 = 0.7999	–	1282.9	–
303.15 K, x2 = 0.8002	1032.09	–	–
303.15 K, x2 = 0.8999	1071.54	1288.9	–
303.15 K, x2 = 0.9005	–	–	0.648
303.15 K, x2 = 0.9436	–	–	0.619
303.15 K, x2 = 0.95	–	1293.2	–
303.15 K, x2 = 0.9503	1095.83	–	–
308.15 K, x2 = 0	887.83	1273.5	2.079
308.15 K, x2 = 0.05	891.97	–	–
308.15 K, x2 = 0.0501	–	–	1.967
308.15 K, x2 = 0.0507	–	1273.1	–
308.15 K, x2 = 0.0999	896.44	–	–
308.15 K, x2 = 0.1001	–	1272.2	–
308.15 K, x2 = 0.1048	–	–	1.844
308.15 K, x2 = 0.198	–	–	1.639
308.15 K, x2 = 0.2	906.69	–	–
308.15 K, x2 = 0.2003	–	1270.2	–
308.15 K, x2 = 0.3	918.65	–	–
308.15 K, x2 = 0.3003	–	1267.9	–
308.15 K, x2 = 0.3012	–	–	1.427
308.15 K, x2 = 0.3999	–	–	1.243
308.15 K, x2 = 0.4	932.71	–	–
308.15 K, x2 = 0.4005	–	1265.9	–
308.15 K, x2 = 0.4502	–	–	1.154
308.15 K, x2 = 0.4998	–	–	1.071
308.15 K, x2 = 0.5	949.47	–	–
308.15 K, x2 = 0.5002	–	1264.2	–
308.15 K, x2 = 0.5499	–	–	0.991
308.15 K, x2 = 0.5998	–	–	0.917
308.15 K, x2 = 0.6	969.67	1263.4	–
308.15 K, x2 = 0.6994	–	–	0.786
308.15 K, x2 = 0.7	994.45	1264.3	–
308.15 K, x2 = 0.7997	–	–	0.685
308.15 K, x2 = 0.7999	–	1267.3	–
308.15 K, x2 = 0.8002	1025.45	–	–
308.15 K, x2 = 0.8986	–	–	0.616
308.15 K, x2 = 0.8999	1064.77	1273.2	–
308.15 K, x2 = 0.9465	–	–	0.59
308.15 K, x2 = 0.95	–	1276.9	–
308.15 K, x2 = 0.9503	1089.08	–	–
313.15 K, x2 = 0	883.59	1257.7	1.689
313.15 K, x2 = 0.05	887.43	–	–
313.15 K, x2 = 0.0507	–	1257.4	–
313.15 K, x2 = 0.0511	–	–	1.606
313.15 K, x2 = 0.0999	891.75	–	–
313.15 K, x2 = 0.1001	–	1256.8	–
313.15 K, x2 = 0.1135	–	–	1.493
313.15 K, x2 = 0.2	901.79	–	–
313.15 K, x2 = 0.2003	–	1254.9	–
313.15 K, x2 = 0.2156	–	–	1.314
313.15 K, x2 = 0.2993	–	–	1.18
313.15 K, x2 = 0.3	913.58	–	–
313.15 K, x2 = 0.3003	–	1252.7	–
313.15 K, x2 = 0.3971	–	–	1.042
313.15 K, x2 = 0.4	927.46	–	–
313.15 K, x2 = 0.4005	–	1250.6	–
313.15 K, x2 = 0.4497	–	–	0.974
313.15 K, x2 = 0.4973	–	–	0.915
313.15 K, x2 = 0.5	943.98	–	–
313.15 K, x2 = 0.5002	–	1248.8	–
313.15 K, x2 = 0.5458	–	–	0.858
313.15 K, x2 = 0.5989	–	–	0.798
313.15 K, x2 = 0.6	963.96	1248	–
313.15 K, x2 = 0.6958	–	–	0.698
313.15 K, x2 = 0.7	988.46	1248.7	–
313.15 K, x2 = 0.7999	–	1251.4	–
313.15 K, x2 = 0.8002	1018.86	–	–
313.15 K, x2 = 0.8004	–	–	0.617
313.15 K, x2 = 0.893	–	–	0.572
313.15 K, x2 = 0.8999	1057.69	1256.3	–
313.15 K, x2 = 0.9491	–	–	0.556
313.15 K, x2 = 0.95	–	1259.5	–
313.15 K, x2 = 0.9503	1081.78	–	–
